Experimental findings from publication PMC11397024, “Strategic Fluorination to Achieve a Potent, Selective, Metabolically Stable, and Orally Bioavailable Inhibitor of CSNK2” (Molecules, 2024) are described below.

In brackets after ≈: the same amount, converted by molar mass.

For data set [1], the system named is CSNK2. Description: In vivo CSNK2 inhibition (substrate phosphorylation in lungs). Conditions: 30 mg/kg p.o. b.i.d. Set-up: species or system Balb/c mice. The protocol: Balb/c mice (female, 8-10 weeks old, from Envigo, Inotiv, Indianapolis, IN, USA) were treated with compound 2 at 30 mg/kg p.o. in a vehicle (DMSO/PEG-400/Water (v/v/v), 10:30:60). Mice were dosed every 12 h for a total of 36 h (3 doses). At the determined time points, mice were euthanized using an overdose of isoflurane (Baxter, Deerfield, IL, USA). Blood was collected via cardiac puncture and lung lobes were collected for downstream processing and analysis. Recovered blood was placed in EDTA tubes, spun at 5000× g in a microcentrifuge and the recovered plasma transferred to a clean tube and frozen at -80 °C until analysis. The left lung lobe was added to a 2 mL O-ring skirted tube containing 750 μL of 1 × PBS containing Phos Stop (per the manufacturer's recommendation, Roche) and glass beads. Lungs were homogenized for 60 s at 6000 rpm in a Roche MagNA Lyser. Homogenates were centrifuged for 5 min at 10,000 rpm and 500 μL of the homogenate was transferred to a clean tube and frozen at -80 °C until analysis. […] Samples were quantified using the Piece Rapid Gold BCA Protein Assay kit (ThermoFisher, A53226, Waltham, MA, USA), and 50 μg protein was run on 4-20% Tris-Glycine gels and transferred to PVDF. […] Bands were quantified using Fiji and normalized to GAPDH. […]

A short description of data set [2]: Unbound fraction in mouse plasma. The data set is classed as in vitro ADME. Conditions: read-out: unbound fraction in mouse plasma (fu).
For data set [3], the system named is SARS-CoV-2. The data set is described as follows: SARS-CoV-2 assay in A549-ACE2 cells. Type of data set: cell-based.
Data set [4] in a line: Kinetic solubility. Type of data set: physicochemical. Conditions: phosphate buffered saline, 22 °C, aqueous buffer, kinetic from dmso stock; PBS pH 7.4 from DMSO stock. The method, then:
Phosphate buffered saline (50 mL, PBS, Fisher (Pittsburgh, PA, USA), pH 7.4) was added to HPLC-grade H2O (450 mL) for a total dilution factor of 1:10 and a final PBS concentration of 1×. […] The final DMSO concentration was 2.0%, and the maximum theoretical compound concentration was 200 μM. The filter plate was heat-sealed for a 24 h incubation. The sample was placed on a rotary shaker (200 rpm) for 24 h at ambient temperature (21.6–22.8 °C) and then vacuum-filtered. All filtrates were injected into a chemiluminescent nitrogen detector for quantification. The equimolar nitrogen response of the detector was calibrated using standards that span the dynamic range of the instrument from 0.08 to 4500 μg/mL nitrogen. The filtrates were quantified with respect to this calibration curve. The calculated solubility values were corrected for background nitrogen present in DMSO and the media used to prepare the samples.

The nature of data set [5]: Snapshot (5 h) PK study with/without EA and 1-ABT. Type of data set: in vivo. Conditions: male, CD-1, mouse, plasma, ip, 10 mg/kg, CD-1 mice, 10 mg/kg i.p. The method, then:
In the 5 h PK study investigating the effect of co-dosing EA and 1-ABT, two cohorts of male CD-1 mice (6–8 weeks old, 20–30 g) were dosed via intraperitoneal (i.p.) administration of compound 2 (10 mg/kg) as a 10 mL/kg volume of a 1.0 mg/mL solution in DMSO/PEG-400/saline (v/v/v, 10:30:60). EA (30 mg/kg) was administered i.p. as a 1.0 mL/kg volume of a 30 mg/mL solution in NMP/PEG-400/water (v/v/v, 10:60:30) as a 6 h pretreatment and again at the time of dosing with compound 2. 1-ABT (100 mg/kg) was administered p.o. as a 10 mL/kg volume of a 10 mg/mL solution in saline as a 2 h pretreatment. No co-treatment with EA or 1-ABT was applied to the first cohort. Co-treatment with EA (30 mg/kg) and 1-ABT (100 mg/kg) was applied in the second cohort. Two mice were dosed in each cohort. The mice had free access to water and food. Blood (0.03 mL) was collected from the dorsal metatarsal vein at 0.5, 1, 3, and 5 h time points. Each blood sample was transferred into a plastic microcentrifuge tube containing EDTA-K2 anticoagulant. Blood samples were centrifuged at 4000× g for 5 min at 4 °C to obtain plasma. The samples were stored in a freezer at −75 ± 15 °C prior to analysis. Plasma samples from the two mice from each cohort and each time point were pooled together for analysis. At 5 h post dose administration, the mice were anesthetized using increasing concentrations of CO2, and lung samples were collected. Lung samples were quickly frozen in an ice box and stored at −75 ± 15 °C. Prior to analysis, all lung samples were weighed and homogenized with phosphate-buffered saline (PBS) in a lung weight (g)/buffer volume (mL) ratio of 1:3. The final compound concentration was calculated by multiplying the detected concentration by a dilution factor of four.
Concentrations of the test compound in the plasma samples were determined using a Prominence LC-MS/MS system with a DGU-20A5R(C) degasser, LC-30AD pump, CBM-20A system controller, SIL-20AC HT autosampler; Rack changer II, HALO 90A ES-CN (2.7 μm, 2.1 × 50 mm) column, and AB Sciex Triple Quan 5500 LC/MS/MS instrument. The mobile phase was 5–95% MeCN in H2O, with 0.1% formic acid. The desired serial concentrations of working solutions were achieved by diluting the stock solution of the analyte with 50% acetonitrile in water. A series of 10 µL working solutions […] were added to 10 μL of blank plasma or lung homogenate to achieve calibration standards of 0.5, 1, 2, 5, 10, 50, 100, 500, 1000 ng/mL in a total volume of 20 μL. A total of 5 quality control samples at 1 ng/mL, 2 ng/mL, 5 ng/mL, 100 ng/mL, and 800 ng/mL were prepared independently of those used for the calibration curves in the same manner. A 20 μL standard, 20 μL QC sample, and 20 μL of an unknown sample (10 µL plasma or lung homogenate with 10 µL blank solution) were added to 200 μL of acetonitrile containing internal standard mixture for precipitating protein. Then, the samples were vortexed for 30 s. After centrifugation at 4 °C and 4000 rpm for 15 min, the supernatant was diluted with ultrapure water at a ratio of 1:2 (v/v, 1:2), then 20 µL of diluted supernatant was injected into the LC/MS/MS system for quantitative analysis. PK parameters were calculated from the mean plasma concentration versus time using a noncompartmental model in WinNonlin Phoenix version 8.3.

The mark [6] stands for this setting: with both EA (30 mg/kg) and 1-ABT (100 mg/kg).

For the molecule `CCC(=O)Nc1cc(Nc2cc(NC3CC3)n3ncc(C#N)c3n2)c(F)cc1N1CCC[C@H](NC)C1` [Compound 2, (S)-N-(5-((3-cyano-7-(cyclopropylamino)pyrazolo[1,5-a]pyrimidin-5-yl)amino)-4-fluoro-2-(3-(methylamino)piperidin-1-yl)phenyl)propionamide], the “EIF2S2 (phospho-Ser2) levels normalized to total EIF2S2 in mouse lungs” value in data set [1] (3, 6, 36 h, small decrease at 3 h, p = 0.14) was “no statistically significant difference”. Also, in data set [1] (3 h time point, p = 0.0028), the “AKT (phospho-Ser129) levels normalized to total AKT in mouse lungs” value is “A decrease in the phosphorylation levels of Ser129 of AKT”. Besides, in data set [2], the fraction unbound was 0.0605. The IC90 in data set [3] (Severe acute respiratory syndrome coronavirus 2) was found to be 2.2 µM. Besides, in data set [3] (Severe acute respiratory syndrome coronavirus 2, triplicate, read-out: SARS-CoV-2 pIC50 (converted)), the IC50 is 0.316 µM. In data set [4], this molecule registered a kinetic solubility at 24 h of 59 µg/mL (≈ 120 µM). Also, in data set [5] (no co-treatment), the AUC(0-t) is 7.77 µM·h, the Cmax was determined as 3.19 µM and the half-life was 2.5 h. In addition, in data set [5] (setting [6]), the AUC(0-t) amounted to 10.1 µM·h, the highest concentration (Cmax) is 3.15 µM and the half-life is 3.7 h.

As a reminder, the fraction unbound is free concentration divided by total concentration. By IC90 is commonly meant the concentration at which the effect reaches the 90% level. Usually kinetic solubility stands for solubility judged after dilution from a stock solution rather than from solid. By AUC(0-t) is commonly meant the area under the concentration-time curve up to a stated or last time point. As a reminder, the Cmax is the peak of the concentration-time curve. The term half-life denotes how long it takes for the measured level to halve.
